Test results taken from US20230277669A1, “USES OF UROLITHINS” (Amazentis SA, priority 2022, published 2023).

Test system: subcutaneous APTK tumors
Test: Oral UA in Rag1-/- mice with s.c. APTK tumors
Type: in vivo
Conditions: UA-containing vs control food; no mature T and B cells
Description: Oral UA confers anti-tumor effects in murine colorectal cancer in a T-cell dependent manner. (FIG. 1A) Schematic representation of AOM model and different UA containing diets. (FIG. 1B) Representative images of swiss-roll sections from AOM-induced colon tumors. Scale bars are 2 mm (upper row) and 300 µm (lower row), respectively. (FIG. 1C) Tumor incidence of AOM-induced tumors receiving different UA-containing diets; n=4/5/5. Data are mean ±SD, depicting one of two independent experiments. *p < 0.05 by two-sided t-test. (FIG. 1D) Average lesion size of AOM-induced tumors receiving different UA-containing diets; n=4/5/5. Data are mean ±SD, depicting one of two independent experiments. *p < 0.05 by two-sided t-test. (FIG. 1E) Relative number of CD45^+CD3^+ T cells in colons of AOM-treated mice at week 24 (n>7, pooled from two independent experiments). Data are mean ± SD, **p < 0.01 by two-sided t-test. (FIG. 1F) Organoid treatment scheme. […] (FIG. 1G) Quantification of lysosome formation as assessed by lysotracker MFI via flow cytometry after 24 h incubation at the presence of various UA concentrations (n=5/4/4). […] (FIG. 1L) End point tumor weight, (FIG. 1M) CD8+ T cell infiltration in APTK-s.c. tumors assessed by flow cytometry, normalising total number of CD8^+ T cells to tumor weight (n=7 per group). […]

## O=c1oc2cc(O)ccc2c2ccc(O)cc12 [Urolithin A]
  tumor size, protective effect of UA: abrogated the protective effect of UA
